Assay results: doi:10.1101/2020.09.01.277368v1, “Disulfiram inhibits M. tuberculosis growth by altering methionine pool, redox status and host-immune response” (biorxiv, 2020)

How the values were obtained:
[1] = molecular target: T1, MetA (HSAT, homoserine acetyl transferase, Rv3341) (Mycobacterium tuberculosis, UniProt P9WJY9); assay: endpoint DTNB CoA release assay; assay type: biochemical; conditions: read-out: % inhibition at 100 μM
T1 construct: gene metXA

[2] = molecular target: T1, MetA (HSAT, homoserine acetyl transferase, Rv3341); assay: ThermoFluor, SYPRO Orange; assay type: binding

T1 sequence (P9WJY9 whole entry, looked up): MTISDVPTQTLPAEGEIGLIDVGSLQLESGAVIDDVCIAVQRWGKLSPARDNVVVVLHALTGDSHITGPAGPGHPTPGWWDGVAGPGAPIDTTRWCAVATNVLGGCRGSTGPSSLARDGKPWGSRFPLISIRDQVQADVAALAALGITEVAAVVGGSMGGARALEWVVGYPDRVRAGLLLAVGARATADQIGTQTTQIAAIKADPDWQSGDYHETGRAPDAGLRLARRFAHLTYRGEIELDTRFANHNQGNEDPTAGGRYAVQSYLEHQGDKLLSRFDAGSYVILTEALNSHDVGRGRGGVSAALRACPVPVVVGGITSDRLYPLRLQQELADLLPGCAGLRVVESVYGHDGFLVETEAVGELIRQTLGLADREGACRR

| SMILES | inhibition at 100 µM [1] [%] | Kd [2] [µM] |
| --- | --- | --- |
| CN(C)C(=S)SSC(=S)N(C)C [NSC1771, thiram] | > 50 |  |
| CCN(CC)C(=S)SSC(=S)N(CC)CC [DIS, disulfiram] | > 50 | 52.7 |
